Key:
[1] = Stability of injection solutions at pH 3.5-4; type: physicochemical; details: 40 mg in 2 ml
Method: This went into solution at low pH very nicely. M NaOH was added to pH 3.5-4. The volume was made up using deionized water.

central nervous system [2] = assay: Rotating rod experiments (rotarod test), drug-induced ataxia; details: for Falls/2 min: 100 mg/kg i.p.
central nervous system [3] = assay: Behavioral observations (Irwin observational assessment)
desmolase [4] = biological target: T1, desmolase (Bos taurus, UniProt P00189); assay: Inhibition of desmolase (mitochondrial fraction of bovine adrenal cortex, 14C-isocaproic acid release from (26-14C)-cholesterol); type: biochemical
T1 construct: The mitochondrial fraction of bovine adrenal cortex provided the source of desmolase; from tissue; host or cells: bovine adrenal cortex, mitochondrial fraction
T1 sequence (P00189 40-520): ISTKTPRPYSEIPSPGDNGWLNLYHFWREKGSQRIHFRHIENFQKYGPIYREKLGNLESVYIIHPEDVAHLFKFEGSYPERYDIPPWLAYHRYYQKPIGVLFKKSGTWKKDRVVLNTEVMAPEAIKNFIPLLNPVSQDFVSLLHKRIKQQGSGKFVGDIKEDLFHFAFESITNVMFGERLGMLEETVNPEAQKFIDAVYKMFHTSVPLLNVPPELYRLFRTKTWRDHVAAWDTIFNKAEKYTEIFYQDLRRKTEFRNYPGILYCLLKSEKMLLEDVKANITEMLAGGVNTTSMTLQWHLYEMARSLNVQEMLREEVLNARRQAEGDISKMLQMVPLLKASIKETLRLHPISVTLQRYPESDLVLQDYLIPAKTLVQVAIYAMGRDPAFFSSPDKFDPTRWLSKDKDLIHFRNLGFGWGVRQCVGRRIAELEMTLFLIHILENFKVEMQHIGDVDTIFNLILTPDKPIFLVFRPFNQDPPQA

[5] = system: Rat mammary tumours induced with MNU (N-methyl-N-nitrosourea); assay: Tests in vivo on tumour regression, MNU-induced rat mammary tumours; set-up: species or system rat (Ludwig Wistar/Ola, WF/ICRF/Ola, female); details: 0.165 millimoles/kg/day s.c.
Method: Unlike DMBA (7,12-dimethylbenz[a]anthracene) induced tumours, MNU tumours may be primarily oestrogen-, rather than prolactin-dependent, see Pruitt, Rose and Bryan, Proc. Ann. Cancer Res. 20, 87, (1979).
Using the method of Williams et al., supra, mammary tumours were induced in virgin female rats of the inbred strain Ludwig Wistar/Ola (WF/ICRF/Ola) by intravenous administration of MNU. MNU was dissolved in 0.9% aqueous sodium chloride solution acidified to pH 5 with acetic acid. Starting at age 50 days, each rat received 3 injections at 14 day intervals via the tail vein (5 mg MNU/100 g body weight/injection; injection volume of 0.5 ml/rat). Animals were assigned to experimental groups at 125-140 days after the first injection, with 12 animals in each group. At this time they bore from 1-3 tumours per animal.
Controls received equivalent injections of DMSO alone.
Results were expressed in terms of the percentage of initial tumour volume for each tumour after 42 day, treatment.

desmolase [6] = details: background; cited from earlier work
central nervous system [7] = assay: Studies on anticonvulsant properties, pentylenetetrazol-induced convulsions; details: i.p., dose not stated; pentylenetetrazol 50 mg/kg

CCC1(c2ccc(N)cc2)CCC(=O)NC1=O (stereo not shown) [aminoglutethimide, 3-ethyl-3-(4-aminophenyl)glutarimide, reference compound]
time after which salt precipitated from solution [1]: > 2 h
effect on motor co-ordination (in words) (central nervous system [2]; 100 mg/kg i.p. (Table 3)): pronounced effect on motor co-ordination. Most of the mice were heavily sedated and thus completely unable to maintain themselves on the rod at either speed
Falls/2 min (central nervous system [2]; 1 r.p.m., 15 min): 18.5 ± 3.5 Falls/2 min
Falls/2 min (central nervous system [2]; 1 r.p.m., 30 min): 4.8 ± 2.0 Falls/2 min
Falls/2 min (central nervous system [2]; 3 r.p.m., 15 min): 27.0 ± 2.0 Falls/2 min
time of peak effect after injection (central nervous system [2]; i.p.): 15 min
Corneal reflex (central nervous system [3]; 100 mg/kg i.p.): +
Flexor reflex (central nervous system [3]; 100 mg/kg i.p.): Inc
Grooming (central nervous system [3]; 100 mg/kg i.p.): +
Motor activity (central nervous system [3]; 100 mg/kg i.p.): Dec
Righting reflex (central nervous system [3]; 100 mg/kg i.p.): +
Tremors (central nervous system [3]; 100 mg/kg i.p.): -
Twitches (central nervous system [3]; 100 mg/kg i.p.): -
corneal, righting and flexor reflexes (in words) (central nervous system [3]; 100 mg/kg i.p.): Corneal, righting and flexor reflexes were still apparent
sedation (in words) (central nervous system [3]; 100 mg/kg i.p.): marked sedation
flexor reflex (in words) (central nervous system [3]; 100 mg/kg i.p., compared to untreated animals): slightly augmented
Passivity (central nervous system [3]; 100 mg/kg i.p., rating 0-4, 20-30 minutes after injection): 3
sleep (in words) (central nervous system [3]; 200 mg/kg i.p., three animals): all fell asleep within a few minutes of the injection
Desmolase inhibition (desmolase [4]): + + +
IC50 (desmolase [4]; 7 micromolar (14C) cholesterol): 30 µM
percentage of tumours which regress (in words) ([5]; 42 days): causes an increase in the percentage of tumours which regress
No. tumours grown by more than 100% ([5]; after 6 weeks (42 days)): 5 tumours
No. tumours grown by up to 100% ([5]; after 6 weeks (42 days)): 2 tumours
No. tumours regressed but by less than 50% ([5]; after 6 weeks (42 days)): 3 tumours
No. tumours regressed by 50% or more ([5]; after 6 weeks (42 days)): 4 tumours
No. tumours with no change ([5]; after 6 weeks (42 days)): 0 tumours
inhibition of desmolase (desmolase [6]): also inhibits the enzyme desmolase
prevention of pentylenetetrazol-induced convulsions (central nervous system [7]): prevented convulsions

From US5071857A, “2,6-dioxopiperidine derivatives, their preparation and pharmaceutical compositions containing them” (National Research Development Corporation, priority 1983, dated 1991)
